Data on 30 compounds can be found in patent publication US6093732A, “4-hydroxyquinoline-3-carboxamides and hydrazides as antiviral agents” (Pharmacia & Upjohn Company, priority 1998, dated 2000).

Counter-ions that a name gives are not always drawn.

T1 sequence (P08546 whole entry): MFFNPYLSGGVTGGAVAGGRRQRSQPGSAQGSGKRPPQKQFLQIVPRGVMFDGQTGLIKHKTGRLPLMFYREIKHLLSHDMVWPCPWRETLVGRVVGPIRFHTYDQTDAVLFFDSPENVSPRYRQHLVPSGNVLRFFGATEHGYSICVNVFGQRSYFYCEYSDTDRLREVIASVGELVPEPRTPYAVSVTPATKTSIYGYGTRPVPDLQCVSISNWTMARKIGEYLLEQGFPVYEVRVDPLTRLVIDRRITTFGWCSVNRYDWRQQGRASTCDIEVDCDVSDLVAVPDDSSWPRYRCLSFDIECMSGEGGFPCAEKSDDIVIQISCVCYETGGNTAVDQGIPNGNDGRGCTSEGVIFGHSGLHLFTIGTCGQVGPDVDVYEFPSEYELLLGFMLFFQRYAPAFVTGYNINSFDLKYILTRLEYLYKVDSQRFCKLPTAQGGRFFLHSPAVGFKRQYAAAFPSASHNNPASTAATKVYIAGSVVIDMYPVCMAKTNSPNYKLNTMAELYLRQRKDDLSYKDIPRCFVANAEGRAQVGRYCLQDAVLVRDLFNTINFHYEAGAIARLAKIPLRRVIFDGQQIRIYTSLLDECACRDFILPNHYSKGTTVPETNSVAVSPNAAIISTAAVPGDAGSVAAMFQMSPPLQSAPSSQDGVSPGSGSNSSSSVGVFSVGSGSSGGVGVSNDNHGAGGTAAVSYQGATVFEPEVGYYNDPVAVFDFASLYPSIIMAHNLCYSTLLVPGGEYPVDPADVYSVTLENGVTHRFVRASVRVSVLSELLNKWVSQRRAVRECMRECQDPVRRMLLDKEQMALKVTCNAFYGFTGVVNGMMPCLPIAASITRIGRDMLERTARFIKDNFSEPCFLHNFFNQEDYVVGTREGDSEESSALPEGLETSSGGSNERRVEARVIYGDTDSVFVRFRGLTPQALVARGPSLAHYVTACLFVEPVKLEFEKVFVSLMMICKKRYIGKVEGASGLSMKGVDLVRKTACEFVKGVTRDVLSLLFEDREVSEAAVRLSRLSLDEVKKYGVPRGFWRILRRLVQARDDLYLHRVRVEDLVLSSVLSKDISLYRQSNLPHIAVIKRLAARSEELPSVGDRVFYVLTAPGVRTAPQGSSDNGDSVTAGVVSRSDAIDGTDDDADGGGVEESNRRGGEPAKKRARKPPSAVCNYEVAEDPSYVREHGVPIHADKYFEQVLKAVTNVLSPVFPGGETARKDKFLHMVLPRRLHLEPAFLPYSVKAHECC

The first test addresses T1, HCMV polymerase (Human cytomegalovirus, UniProt P08546).
T1 construct: made in house; host or cells: recombinant baculovirus-infected SF-9 cells
The test is described as follows: HCMV polymerase scintillation proximity assay (SPA), modified version. In kind it is biochemical. As to conditions: Antiviral Selective Polymerase IC50 Values, CMV, Table 1, modified assay with 4.5 mM DTT, compounds in 100% DMSO. How it is done: The HCMV polymerase assay is performed using a scintillation proximity assay (SPA) as described in several references, such as N. D. Cook, et al., Pharmaceutical Manufacturing International, pages 49-53 (1992); K. Takeuchi, Laboratory Practice, September issue (1992); U.S. Pat. No. 4,568,649 (1986); which are incorporated by reference herein. Reactions are performed in 96-well plates. The assay is conducted in 100 μl volume with 5.4 mM HEPES (pH 7.5), 11.7 mM KCl, 4.5 mM MgCl2, 0.36 mg/ml BSA, and 90 nM ^3 H-dTTP. Assays are run with and without CHAPS, (3-[(3-Cholamidopropyl)-dimethylammonio]-1-propane-sulfonate) at a final concentration of 2 mM. HCMV polymerase is diluted in enzyme dilution buffer containing 50% glycerol, 250 mM NaCl, 10 mM HEPES (pH 7.5), 100 μg/ml BSA, and 0.01% sodium azide. The HCMV polymerase, which is expressed in recombinant baculovirus-infected SF-9 cells and purified according to literature procedures, is added at 10% (or 10 μl) of the final reaction volume, i.e., 100 μl. Compounds are diluted in 50% DMSO and 10 μl are added to each well. Control wells contain an equivalent concentration of DMSO. Unless noted otherwise, reactions are initiated via the addition of 6 nM biotinylated poly(dA)-oligo(dT) template/primer to reaction mixtures containing the enzyme, substrate, and compounds of interest. Plates are incubated in a 25° C. or 37° C. H2 O bath and terminated via the addition of 40 μl/reaction of 0.5 M EDTA (pH 8) per well. Reactions are terminated within the time-frame during which substrate incorporation is linear and varied depending upon the enzyme and conditions used, i.e., 30 min. for HCMV polymerase. Ten μl of streptavidin-SPA beads (20 mg/ml in PBS/10% glycerol) are added following termination of the reaction. Plates are incubated 10 min. at 37° C., then equilibrated to room temperature, and counted on a Packard Topcount. Linear regressions are performed and IC50 's are calculated using computer software.
A modified version of the above HCMV polymerase assay is performed as described above, but with the following changes: Compounds are diluted in 100% DMSO until final dilution into assay buffer. In the previous assay, compounds are diluted in 50% DMSO. 4.5 mM dithiotherotol (DTT) is added to the polymerase buffer. […] Other viral polymerase assays are performed using procedures similar to those described above.
Regarding `O=C(NCc1ccc(Cl)cc1)c1cnc2c(F)cc(S(=O)(=O)NCCBr)cc2c1O` [Example 244, 6-{[(2-bromoethyl)amino]sulfonyl}-N-(4-chlorobenzyl)-8-fluoro-4-hydroxy-3-quinolinecarboxamide], the IC50 was 19 µM.

The test is the same for the next values; noted with them: CMV polymerase; Table 1; modified assay with 4.5 mM DTT, compounds in 100% DMSO; read-out: Antiviral Selective Polymerase IC50 Values, CMV.
With `O=C(NCc1ccc(Cl)cc1)c1cnc2c(F)cc(/C=C\CCO)cc2c1O` [Example 104, N-(4-Chlorobenzyl)-8-fluoro-4-hydroxy-6-[(Z)-4-hydroxy-1-butenyl]-3-quinolinecarboxamide], the IC50 is less than 0.78 µM.
With `O=C(NCc1ccc(Cl)cc1)c1cnc2cc3c(cc2c1O)CCC3` [Example 64, N-[(4-Chlorophenyl)methyl]-7,8-dihydro-4-hydroxy-6H-cyclopent a[g]quinoline-3-carboxamide], the IC50 worked out at 8.5 µM.
On to `O=C(NCc1ccc(Cl)cc1)c1cnc2c(F)cc(S(=O)(=O)NCc3ccc4c(c3)OCO4)cc2c1O` [Example 212, 6-{[(1,3-benzodioxol-5-ylmethyl)amino]sulfonyl}-N-(4-chlorobenzyl)-8-fluoro-4-hydroxy-3-quinolinecarboxamide], for which the IC50 was found to be 14.5 µM.
The same measure, in the same setting: next, `O=C(NCc1ccc(Cl)cc1)c1cnc2ccc(I)cc2c1O` [Example 40, N-[(4-Chlorophenyl)methyl]-4-hydroxy-6-iodo-3-quinoline-carboxamide]: 3.5 µM; `O=C(O)CCCCCCCCCCNS(=O)(=O)c1cc(F)c2ncc(C(=O)NCc3ccc(Cl)cc3)c(O)c2c1` [Example 226, 11-{[(3-{[(4-chlorobenzyl)amino]carbonyl}-8-fluoro-4-hydroxy-6-quinolinyl)sulfonyl]amino}undecanoic acid]: 18.5 µM.
On the same count and under the same terms, the figure for `CC(=O)CCc1cc(F)c2ncc(C(=O)NCc3ccc(Cl)cc3)c(O)c2c1` [Example 160, N-(4-Chlorobenzyl)-8-fluoro-4-hydroxy-6-(3-oxobutyl)-3-quinolinecarboxamide] is 1.2 µM.
On the same count and under the same terms, next, `NC(=S)c1ccc2c(O)c(C(=O)NCc3ccc(Cl)cc3)cnc2c1` [Example 102, 7-(Aminocarbothioyl)-N-(4-chlorobenzyl)-4-hydroxy-3-quinoline-carboxamide]: 4.6 µM; `O=C(NCc1ccc(Cl)cc1)c1cnc2c(F)cc(S(=O)(=O)N3CCOCC3)cc2c1O` [Example 198, N-(4-Chlorobenzyl)-8-fluoro-4-hydroxy-6-(4-morpholinylsulfonyl)-3-quinolinecarboxamide]: 21 µM; `O=C(NCc1ccc(Cl)cc1)c1cnc2ccc(Cl)cc2c1O` [Example 21, 6-Chloro-N-[(4-chlorophenyl)methyl]-4-hydroxy-3-quinoline-carboxamide]: 4.4 µM.
Turning to `CC(C)C(N)C(=O)OCCCc1cc(F)c2ncc(C(=O)NCc3ccc(Cl)cc3)c(O)c2c1` (stereo not drawn) [Example 149, 3-(3-{[(4-Chlorobenzyl)amino]carbonyl}-8-fluoro-4-hydroxy-6-quinolinyl)propyl 2-amino-3-methylbutanoate], the IC50 amounted to 6.3 µM.
The same measure, in the same setting: next, `Nc1cc(F)c2ncc(C(=O)NCc3ccc(Cl)cc3)c(O)c2c1` [Example 186, 6-Amino-N-(4-chlorobenzyl)-8-fluoro-4-hydroxy-3-quinolinecarboxamide]: 13.8 µM.
Still for that read-out and setting: the figure for `CC(C)(C)CNS(=O)(=O)c1cc(F)c2ncc(C(=O)NCc3ccc(Cl)cc3)c(O)c2c1` [Example 222, N-(4-chlorobenzyl)-8-fluoro-4-hydroxy-6-[(neopentylamino)sulfonyl]-3-quinolinecarboxamide] is 11.5 µM; for `O=C(NCc1ccc(Cl)cc1)c1cnc2cc(S(=O)(=O)NCc3cccc4ccccc34)ccc2c1O` [Example 277, N-(4-Chlorobenzyl)-4-hydroxy-7-{[(1-naphthylmethyl)amino]-sulfonyl}-3-quinolinecarboxamide] it is 0.77 µM; for `O=C(NCc1ccc(Cl)cc1)c1cnc2c(F)cc(S(=O)(=O)NCCC3=CCCCC3)cc2c1O` [Example 237, N-(4-chlorobenzyl)-6-({[2-(1-cyclohexen-1-yl)ethyl]amino}-sulfonyl)-8-fluoro-4-hydroxy-3-quinolinecarboxamide] it is 6.9 µM.
Same read-out and setting: the figure for `O=C(NCc1ccc(Cl)cc1)c1cnc2cccc(C(F)(F)F)c2c1O` [Example 76, N-((4-Chlorophenyl)methyl)-4-hydroxy-5-trifluoromethyl-3-quinolinecarboxamide] is 5.2 µM; for `O=C(NCc1ccc(Cl)cc1)c1cnc2c(F)cc(S(=O)(=O)NCC3CCCCC3)cc2c1O` [Example 201, N-(4-chlorobenzyl)-6-{[(cyclohexylmethyl)amino]sulfonyl}-8-fluoro-4-hydroxy-3-quinolinecarboxamide] it is 6 µM.
Regarding `O=C(NCc1ccc(Cl)cc1)c1cnc2c(F)cc(S(=O)(=O)NCc3ccccn3)cc2c1O` [Example 199, N-(4-Chlorobenzyl)-8-fluoro-4-hydroxy-6-{[(2-pyridinylmethyl)amino]-sulfonyl}-3-quinolinecarboxamide], the IC50 was 26.4 µM.
For the compound `CNS(=O)(=O)c1cc(F)c2ncc(C(=O)NCc3ccc(Cl)cc3)c(O)c2c1` [Example 239, N-(4-chlorobenzyl)-8-fluoro-4-hydroxy-6-[(methylamino)sulfonyl]-3-quinolinecarboxamide], the IC50 was found to be 13.1 µM.
On the same count and under the same terms, the figure for `O=C(NCc1ccc(Cl)cc1)c1cnc2ccc(CCCO[PH](=O)O)cc2c1O` [Example 272, 3-(3-{[(4-Chlorobenzyl)amino]carbonyl}-4-hydroxy-6-quinolinyl)propyl hydrogen phosphonate] is 8.6 µM; for `O=C(NCc1ccc(Cl)cc1)c1cnc2c(F)cc(C(=O)N3CCOCC3)cc2c1O` [Example 180, N-(4-Chlorobenzyl)-8-fluoro-4-hydroxy-6-(4-morpholinylcarbonyl)-3-quinolinecarboxamide] it is 28.2 µM; for `CSc1cc(F)c2ncc(C(=O)NCc3ccc(Cl)cc3)c(O)c2c1` [Example 170, N-(4-Chlorobenzyl)-8-fluoro-4-hydroxy-6-(methylsulfanyl)-3-quinolinecarboxamide] it is 4.4 µM.
Still for that read-out and setting: the figure for `O=C(O)CCC#Cc1cc(F)c2ncc(C(=O)NCc3ccc(Cl)cc3)c(O)c2c1` [Example 115, 5-(3-{[(4-Chlorobenzyl)amino]carbonyl}-8-fluoro-4-hydroxy-6-quinolinyl)-4-pentynoic acid] is 6.1 µM; for `O=C(NCc1ccc(Cl)cc1)c1cnc2ccc(-c3ccccc3)cc2c1O` [Example 58, N-((4-Chlorophenyl)methyl)-4-hydroxy-6-phenyl-3-quinoline-carboxamide] it is 1 µM; for `CC(C)C(NC(=O)OC(C)(C)C)C(=O)OCCCc1cc(F)c2ncc(C(=O)NCc3ccc(Cl)cc3)c(O)c2c1` (stereo not drawn) [Example 146, 3-(3-{[(4-Chlorobenzyl)amino]carbonyl}-8-fluoro-4-hydroxy-6-quinolinyl)propyl 2-[(tert-butoxycarbonyl)amino]-3-methylbutanoate] it is 38.7 µM.
On the same count and under the same terms, the figure for `O=COCC#Cc1cc(F)c2ncc(C(=O)NCc3ccc(Cl)cc3)c(O)c2c1` [Example 131, 3-(3-{[(4-Chlorobenzyl)amino]carbonyl}-8-fluoro-4-hydroxy-6-quinolinyl)-2-propynyl formate] is 1.8 µM; for `COCCOc1c(F)cc2c(O)c(C(=O)NCc3ccc(Cl)cc3)cnc2c1OCCOC` [Example 85, N-((4-Chlorophenyl)methyl)-6-fluoro-7,8-di(2-(methoxy)ethoxy)-4-hydroxy-3-quinolinecarboxamide] it is 18.1 µM.
Regarding `O=C(NCc1ccc(Cl)cc1)c1cnc2c(F)cc(S(=O)(=O)NCCN3CCCC3)cc2c1O` [Example 203, N-(4-chlorobenzyl)-8-fluoro-4-hydroxy-6-({[2-(1-pyrrolidinyl)ethyl]amino}sulfonyl)-3-quinolinecarboxamide], the IC50 amounted to 38.8 µM.
The same measure, in the same setting: next, `NC(=S)c1cc(F)c2ncc(C(=O)NCc3ccc(Cl)cc3)c(O)c2c1` [Example 52, 6-(Aminothioxomethyl)-N-[(4-chlorophenyl)methyl]-8-fluoro-4-hydroxy-3-quinolinecarboxamide]: 11 µM.
Same read-out and setting: next, `O=C(Nc1ccccc1)OCCCc1cc(F)c2ncc(C(=O)NCc3ccc(Cl)cc3)c(O)c2c1` [Example 159, 3-(3-{[(4-Chlorobenzyl)amino]carbonyl}-8-fluoro-4-hydroxy-6-quinolinyl)propyl phenylcarbamate]: 5 µM.
